We go through five compounds from patent US11806332B2, “Compositions and methods for inhibition of SARS-CoV-2 viral infections” (priority 2020, dated 2023).

Where two headings read alike, the source gives them in different places.

For data set [1] the following is noted: patients, state Cmax; cited from earlier work.
Data set [2] relates to SARS-CoV-2. It is filed as cell-based. Particulars: Repeat 1 and 2. Further details: key: Cytotoxicity; ND: Both cytotoxicity and CPE are not detected.; SARS-CoV-2 induced CPE.
For data set [3] the following is noted: mice, dose as high as 300 mg/kg/day; cited from earlier work.
Data set [4] concerns SARS-CoV-2. Briefly: Live virus-based microneutralization (MN) assay, SARS-CoV-2-induced CPE in Vero E6 cells. Format: cell-based. Details: key to SARS-CoV-2 induced CPE in Vero E6 cells: Cytotoxicity; ND: Both cytotoxicity and CPE are not detected.; SARS-CoV-2 induced CPE. Conditions: for SARS-CoV-2 induced CPE in Vero E6 cells: Repeat 1 and 2.
The next data set addresses M^Pro (Severe acute respiratory syndrome coronavirus 2, UniProt P0DTD1). Format: biochemical.

Turning to `CC(C)COCC(CN(Cc1ccccc1)c1ccccc1)N1CCCC1` (stereo not drawn) [Bepridil], the Cmax – broadly, the peak of the concentration-time curve – in data set [1] was 3.72 µM. Also, the “SARS-CoV-2 induced CPE in ACE2-expressing A549 cells” value in the data set with SARS-CoV-2 [2] (bepridil 1.56 μM) and in the data set with SARS-CoV-2 [2] (bepridil 3.12 μM) was “CPE” in each case. In addition, the “mating behavior and reproductive performance” value in data set [3] was “did not show alteration in mating behavior and reproductive performance”. In addition, the “SARS-CoV-2 induced CPE in Vero E6 cells” value with SARS-CoV-2 [4] (bepridil 0.16 μM) was “CPE”; in the data set on SARS-CoV-2 [4] (bepridil 0.31 μM), “CPE”; in the data set on SARS-CoV-2 [4] (bepridil 0.62 μM) it was “CPE”; in the data set on SARS-CoV-2 [4] (bepridil 1.25 μM) it was “CPE”; with SARS-CoV-2 [4] (bepridil 2.5 μM) it was “CPE”; in the data set on SARS-CoV-2 [4] (bepridil 50 μM), “C”. For the same compound, the “SARS-CoV-2 induced CPE in Vero E6 cells” value in the data set with SARS-CoV-2 [4] (bepridil 100 μM) is “C”; in the data set on SARS-CoV-2 [4] (bepridil 200 μM) it was “C^a and C”.
Consider `CC(C)(C)c1ccc(C(=O)CCCN2CCC(OC(c3ccccc3)c3ccccc3)CC2)cc1` [Ebastine], for which the “Cytopathogenic effect (CPE)” value in the data set with SARS-CoV-2 [4] is “observed”.
In the case of `Cc1cccc(C)c1OCC(=O)N[C@@H](Cc1ccccc1)[C@@H](O)C[C@H](Cc1ccccc1)NC(=O)[C@H](C(C)C)N1CCCNC1=O` [Lopinavir], on M^Pro (50 nM M^Pro, 10 μM Sub3, mean ± SE, triplicate), the midpoint of inhibition, the IC50, lay at 486 ± 2 µM. Further, the “Hill Slope” value is 29.9 ± 2.4 on M^Pro (Hill coefficient of IC50 curve, four-parameter fit) and “lowest Hill coefficients” at M^Pro (Hill coefficient of IC50 curve, four-parameter fit, listed as lopinavir).
Turning to `O=c1[nH]c2ccccc2n1C1CCN(CCCC(c2ccc(F)cc2)c2ccc(F)cc2)CC1` [Pimozide], the “Cytopathogenic effect (CPE)” value in the data set on SARS-CoV-2 [4] (Vero E6 cells, all tested concentrations, 0.16 to 200 μM) is on record as “observed”.
In the case of `CCOC(=O)/C=C/[C@H](C[C@@H]1CCNC1=O)NC(=O)[C@@H](CC(=O)[C@@H](NC(=O)c1cc(C)on1)C(C)C)Cc1ccc(F)cc1` [Rupintrivir], the “Hill Slope” value on M^Pro is on record as 1.4 ± 0.2.
